The source of these data is patent US20080280879A1, “SUBSTITUTED HETEROCYCLIC DERIVATIVES AND THEIR PHARMACEUTICAL USE AND COMPOSITIONS” (priority 2007, published 2008).

Converted amounts (≈) assume the structure as drawn.

What all share (format): cell-based, Staphylococcus aureus
One assay has as its system Staph aureus 1095 MRSA. Nature of the assay: MIC, microtiter broth dilution (CLSI M7-A7), Assay 1, Table 12 column A, no serum. Particulars: Assay 1, no serum; for MIC: Staphylococcus aureus, MRSA. On the procedure: (§1) The assays described herein include a panel of bacterial isolates of Staphylococcus aureus. Assay 1 comprises the strains noted in Columns A through E, and Assay 2 comprises the strains noted in Columns F through H. The assays are performed in microtiter trays according to Methods for Dilution Antimicrobial Susceptibility Tests for Bacteria that Grow Aerobically; Approved Standard-7th edition (M7-A7) and interpreted according to the Performance Standards for Antimicrobial Susceptibility Testing; 16th Informational Supplement (M100-S16) published by Clinical Laboratory Standards Institute (CLSI). The antibacterial activity is presented in the form of a minimum inhibitory concentration (MIC) value in μg/ml format. The MIC value represents the lowest concentration of drug measured which prevented macroscopically visible growth under the conditions and specific doses tested. The compounds were initially dissolved in DMSO as 30 mM stocks and diluted accordingly to adjust to a concentration of 10 mg/ml or the compounds were dissolved in DMSO at a concentration of 10 mg/ml. For assessment of activity in the presence of human serum, S. aureus 1146 and S. aureus 1031 were inoculated into Mueller-Hinton Broth with 50% pooled inactivated human serum. In some cases, compounds were tested more than once in a particular assay. Where noted, the MIC value shown in Table 12 represents the geometric mean of the data from multiple runs.
(§2) It should be understood that the data in columns A-H represents MIC data in μg/ml and the notation “<=” means ‘less than or equal to’.

Assay [1] has as its system Staph aureus 1146. Kind of assay: MIC, microtiter broth dilution (CLSI M7-A7), Assay 1, Table 12 column B, no serum. Particulars: for MIC: Staphylococcus aureus, 1146, Staph aureus 1146, Assay 1, no serum; for MIC, column B: Staph aureus 1146, Assay 1, no serum. On the procedure: as §1, §2
Assay [2] relates to Staph aureus 1146. Kind of assay: MIC in Mueller-Hinton Broth with 50% pooled inactivated human serum, Assay 1, Table 12. The note with it: for MIC: Staphylococcus aureus, 1146, Staph aureus 1146, Assay 1, 50% human serum, read-out: MIC, column C; for MIC, column C: Staph aureus 1146, Assay 1, 50% human serum. On the procedure: as §1, §2
In another assay the test system is Staph aureus 2811. Nature of the assay: MIC, microtiter broth dilution (CLSI M7-A7), Assay 1, Table 12 column D, no serum. The note with it: for MIC: Staphylococcus aureus, 2811, Staph aureus 2811, Assay 1, no serum; for MIC, column D: Staph aureus 2811, Assay 1, no serum. On the procedure:
as §1, §2

The test system of the next assay is Staph aureus 2812. Nature of the assay: MIC, microtiter broth dilution (CLSI M7-A7), Assay 1, Table 12 column E, no serum. Particulars: for MIC: Staphylococcus aureus, 2812, Staph aureus 2812, Assay 1, no serum; for MIC, column E: Staph aureus 2812, Assay 1, no serum. Here is the method: as §1, §2

With `COc1ccc2nccc(C(O)CCC3CCN(C[C@@H]4C[C@H]4c4ccccc4)CC3C(=O)O)c2c1` (relative stereo) [Example 25, 4-[3-hydroxy-3-(6-methoxyquinolin-4-yl)propyl]-1-{[(trans)-2-phenylcyclopropyl]methyl}piperidine-3-carboxylic acid], the MIC was determined as 2 µg/mL (≈ 4.21 µM) in the assay with Staph aureus 1095 MRSA; 2 µg/mL (≈ 4.21 µM) in the assay with Staph aureus 1146 [1]; 4 µg/mL (≈ 8.43 µM) in the assay on Staph aureus 1146 [2]; 1 µg/mL (≈ 2.11 µM) with Staph aureus 2811; 1 µg/mL (≈ 2.11 µM) against Staph aureus 2812.
With `COc1ccc2ncc(F)c(C(O)CC[C@@H]3CCN(C4CC(c5cc(F)ccc5F)C4)C[C@@H]3C(=O)O)c2n1` (stereo partly drawn) [Example 205, (3R,4R)-1-[3-(2,5-difluorophenyl)cyclobutyl]-4-[3-(3-fluoro-6-methoxy-1,5-naphthyridin-4-yl)-3-hydroxypropyl]piperidine-3-carboxylic acid], the MIC is < 0.0625 µg/mL against Staph aureus 1095 MRSA; < 0.0625 µg/mL with Staph aureus 1146 [1]; 2 µg/mL (≈ 3.78 µM) in the assay on Staph aureus 1146 [2]; < 0.0625 µg/mL with Staph aureus 2811; < 0.0625 µg/mL against Staph aureus 2812.
As to “(3R,4R)-1-(1-cyclobutylazetidin-3-yl)-4-[3-hydroxy-3-(6-methoxyquinolin-4-yl)propyl]piperidine-3-carboxylic acid [Example 130]”, the “MIC, column A” value against Staph aureus 1095 MRSA was >64 µg/mL. The “MIC, column B” value against Staph aureus 1146 [1] was >64 µg/mL. Besides, the “MIC, column C” value against Staph aureus 1146 [2] is >64 µg/mL. Moreover, the “MIC, column D” value in the assay with Staph aureus 2811 was >64 µg/mL. In the assay on Staph aureus 2812, the “MIC, column E” value is >64 µg/mL.
Take `COc1ccc2nccc([C@@H](O)CC[C@@H]3CCN(C4CC(c5c(F)ccc(Cl)c5F)C4)C[C@@H]3C(=O)O)c2c1` (stereo partly drawn) [Example 68, (3R,4R)-1-[3-(3-chloro-2,6-difluorophenyl)cyclobutyl]-4-[(3S)-3-hydroxy-3-(6-methoxyquinolin-4-yl)propyl]piperidine-3-carboxylic acid]: the MIC against Staph aureus 1095 MRSA was 0.25 µg/mL (≈ 0.459 µM); in the assay with Staph aureus 1146 [1], ≤ 0.0625 µg/mL; in the assay with Staph aureus 1146 [2] it was 4 µg/mL (≈ 7.34 µM); in the assay with Staph aureus 2811, ≤ 0.0625 µg/mL; in the assay on Staph aureus 2812, ≤ 0.0625 µg/mL.
On to `COc1ccc2ncc(F)c(C(O)CC[C@@H]3CCN(C4CC(c5cc(F)cc(F)c5)C4)C[C@@H]3C(=O)O)c2n1` (stereo partly drawn) [Example 222, (3R,4R)-1-[3-(3,5-difluorophenyl)cyclobutyl]-4-[3-(3-fluoro-6-methoxy-1,5-naphthyridin-4-yl)-3-hydroxypropyl]piperidine-3-carboxylic acid], for which the MIC against Staph aureus 1095 MRSA was 0.25 µg/mL (≈ 0.472 µM); against Staph aureus 1146 [1], < 0.0625 µg/mL; with Staph aureus 1146 [2], 2 µg/mL (≈ 3.78 µM); against Staph aureus 2811 it was < 0.0625 µg/mL; against Staph aureus 2812, < 0.0625 µg/mL.
Take `COc1ccc2nccc(C(O)CC[C@@H]3CCN(C4CC(CC5CCOC5)C4)C[C@@H]3C(=O)O)c2c1` (stereo partly drawn) [Example 51, (3R,4R)-4-[3-hydroxy-3-(6-methoxyquinolin-4-yl)propyl]-1-[3-(tetrahydrofuran-3-ylmethyl)cyclobutyl]piperidine-3-carboxylic acid]: the MIC with Staph aureus 1095 MRSA worked out at 32 µg/mL (≈ 66.3 µM); in the assay on Staph aureus 1146 [1] it was 16 µg/mL (≈ 33.2 µM); in the assay on Staph aureus 1146 [2], 16 µg/mL (≈ 33.2 µM); against Staph aureus 2811, 16 µg/mL (≈ 33.2 µM); against Staph aureus 2812, 8 µg/mL (≈ 16.6 µM).
As for `COc1ccc2nccc([C@@H](O)CC[C@@H]3CCN(C4CC(c5ccc(Br)cc5F)C4)C[C@@H]3C(=O)O)c2c1` (stereo partly drawn) [Example 196, (3R,4R)-1-[3-(4-bromo-2-fluorophenyl)cyclobutyl]-4-[(3S)-3-hydroxy-3-(6-methoxyquinolin-4-yl)propyl] piperidine-3-carboxylic acid], the MIC was 8 µg/mL (≈ 14 µM) in the assay with Staph aureus 1095 MRSA; 1 µg/mL (≈ 1.75 µM) in the assay with Staph aureus 1146 [1]; 64 µg/mL (≈ 112 µM) in the assay with Staph aureus 1146 [2]; 1 µg/mL (≈ 1.75 µM) against Staph aureus 2811; 2 µg/mL (≈ 3.5 µM) in the assay on Staph aureus 2812.
For the molecule `COc1ccc2ncc(Cl)c(C(O)CCC3(C(=O)O)CCN(C4CC(c5cc(F)ccc5F)C4)C3)c2c1` (centres unmarked) [Example 184, 3-[3-(3-chloro-6-methoxyquinolin-4-yl)-3-hydroxypropyl]-1-[3-(2,5-difluorophenyl)cyclobutyl] pyrrolidine-3-carboxylic acid], the MIC was 0.25 µg/mL (≈ 0.471 µM) in the assay with Staph aureus 1095 MRSA; < 0.0625 µg/mL with Staph aureus 1146 [1]; 8 µg/mL (≈ 15.1 µM) in the assay with Staph aureus 1146 [2]; < 0.0625 µg/mL against Staph aureus 2811; < 0.0625 µg/mL with Staph aureus 2812.
Take `COc1ccc2ncc(F)c(C(O)CC[C@@H]3CCN(C4CC(c5c(F)cccc5F)C4)C[C@@H]3C(=O)O)c2n1` (stereo partly drawn) [Example 190, (3R,4R)-1-[3-(2,6-difluorophenyl)cyclobutyl]-4-[3-(3-fluoro-6-methoxy-1,5-naphthyridin-4-yl)-3-hydroxypropyl]piperidine-3-carboxylic acid]: the “MIC, column A” value against Staph aureus 1095 MRSA is <0.0625 µg/mL. Moreover, the “MIC, column B” value in the assay on Staph aureus 1146 [1] is <0.0625 µg/mL. Also, the “MIC, column C” value in the assay on Staph aureus 1146 [2] came out at 1.00 µg/mL (≈ 1.89 µM). For the same molecule, the “MIC, column D” value with Staph aureus 2811 was <0.0625 µg/mL. Further, the “MIC, column E” value against Staph aureus 2812 came out at 0.125 µg/mL (≈ 0.236 µM).
Regarding `COc1ccc2ncc(F)c(C(O)CC[C@@H]3CCN(C4CC(c5cc(F)ccc5F)C4)C[C@@H]3C(=O)O)c2c1` (single isomer, unassigned) [Example 60], in the assay on Staph aureus 1095 MRSA, the “MIC, column A” value worked out at 0.125 µg/mL (≈ 0.236 µM). For the same molecule, the “MIC, column B” value against Staph aureus 1146 [1] is “<=.0625 μg/ml”. Moreover, the “MIC, column C” value in the assay on Staph aureus 1146 [2] was found to be 4 µg/mL (≈ 7.57 µM). In the assay on Staph aureus 2811, the “MIC, column D” value is “<=.0625 μg/ml”. Besides, the “MIC, column E” value in the assay on Staph aureus 2812 is reported as “<=.0625 μg/ml”.
For `COc1ccc2nccc(C(O)CC[C@@H]3CCN(C4CC(c5ccccc5)C4)CC3(C)C(=O)O)c2c1` (stereo partly drawn) [Example 12, (4R)-4-[3-hydroxy-3-(6-methoxyquinolin-4-yl)propyl]-3-methyl-1-(3-phenylcyclobutyl) piperidine-3-carboxylic acid], the MIC against Staph aureus 1095 MRSA was determined as 4 µg/mL (≈ 8.19 µM); with Staph aureus 1146 [1] it was 2 µg/mL (≈ 4.09 µM); against Staph aureus 2811, 2 µg/mL (≈ 4.09 µM); with Staph aureus 2812, 2 µg/mL (≈ 4.09 µM). In the assay on Staph aureus 1146 [2], the “MIC, column C” value came out at 8 µg/mL (≈ 16.4 µM).
For `CCc1noc(C2CC(N3CC[C@@H](CCC(O)c4ccnc5ccc(OC)cc45)[C@@H](C(=O)O)C3)C2)n1` (stereo partly drawn) [Example 162, (3R,4R)-1-[3-(3-ethyl-1,2,4-oxadiazol-5-yl)cyclobutyl]-4-[3-hydroxy-3-(6-methoxyquinolin-4-yl)propyl]piperidine-3-carboxylic acid], the MIC is 64 µg/mL (≈ 129 µM) with Staph aureus 1095 MRSA; 64 µg/mL (≈ 129 µM) in the assay with Staph aureus 1146 [1]; > 64 µg/mL with Staph aureus 1146 [2]; 32 µg/mL (≈ 64.7 µM) against Staph aureus 2811; 64 µg/mL (≈ 129 µM) with Staph aureus 2812.
For `COc1ccc2ncc(F)c(C(O)CC[C@@H]3CCN(C4CC(c5cc(F)ccc5F)C4)C[C@@H]3C(=O)O)c2n1` (stereo partly drawn) [Example 217, (3R,4R)-1-[3-(2,5-difluorophenyl)cyclobutyl]-4-[3-(3-fluoro-6-methoxy-1,5-naphthyridin-4-yl)-3-hydroxypropyl]piperidine-3-carboxylic acid], in the assay with Staph aureus 1095 MRSA, the “MIC, column A” value was found to be 0.125 µg/mL (≈ 0.236 µM). For the same molecule, the “MIC, column B” value with Staph aureus 1146 [1] worked out at 0.0600 µg/mL (≈ 0.113 µM). Moreover, in the assay on Staph aureus 1146 [2], the “MIC, column C” value came out at 2.00 µg/mL (≈ 3.78 µM). Further, the “MIC, column D” value against Staph aureus 2811 was found to be 0.125 µg/mL (≈ 0.236 µM). In addition, the “MIC, column E” value in the assay on Staph aureus 2812 turned out to be 0.0600 µg/mL (≈ 0.113 µM).
`COc1ccc2nccc([C@@H](O)CNC3CCN([C@H]4C[C@@H](c5ccccc5)C4)CC3C(=O)O)c2c1` (stereo partly drawn) [Example 123, 4-{[(2R)-2-hydroxy-2-(6-methoxyquinolin-4-yl)ethyl]amino}-1-(cis-3-phenylcyclobutyl)piperidine-3-carboxylic acid]: the MIC against Staph aureus 1095 MRSA was 32 µg/mL (≈ 67.3 µM); with Staph aureus 1146 [1], 16 µg/mL (≈ 33.6 µM); with Staph aureus 1146 [2] it was 32 µg/mL (≈ 67.3 µM); in the assay on Staph aureus 2811, 16 µg/mL (≈ 33.6 µM); in the assay on Staph aureus 2812 it was 32 µg/mL (≈ 67.3 µM).
For the molecule `COc1ccc2ncc(Cl)c(C(O)CCC3(C(=O)O)CCN(C4CC(c5c(F)cccc5F)C4)C3)c2c1` (centres unmarked) [Example 176, 3-[3-(3-chloro-6-methoxyquinolin-4-yl)-3-hydroxypropyl]-1-[3-(2,6-difluorophenyl)cyclobutyl] pyrrolidine-3-carboxylic acid], the MIC with Staph aureus 1095 MRSA was 0.125 µg/mL (≈ 0.235 µM); in the assay on Staph aureus 1146 [1], < 0.0625 µg/mL; in the assay with Staph aureus 1146 [2] it was 4 µg/mL (≈ 7.53 µM); with Staph aureus 2811, < 0.0625 µg/mL; with Staph aureus 2812, < 0.0625 µg/mL.
For the molecule `COc1ccc2ncc(F)c(C(O)CC[C@@H]3CCN(C4CC(c5cc(F)ccc5F)C4)C[C@@H]3C(=O)O)c2c1` (stereo partly drawn) [Example 39, (3R,4R)-1-[3-(2,5-difluorophenyl)cyclobutyl]-4-[3-(3-fluoro-6-methoxyquinolin-4-yl)-3-hydroxypropyl]piperidine-3-carboxylic acid], the MIC was ≤ 0.125 µg/mL in the assay with Staph aureus 1095 MRSA; ≤ 0.0625 µg/mL against Staph aureus 1146 [1]; 1 µg/mL (≈ 1.89 µM) in the assay with Staph aureus 1146 [2]; 0.25 µg/mL (≈ 0.473 µM) against Staph aureus 2811; ≤ 0.0625 µg/mL against Staph aureus 2812.
